PMC12410356 (International Journal for Parasitology: Drugs and Drug …, 2025)
Like-named read-outs stand apart in the source and are kept apart here.

What was measured:
Type in all cases: cell-based, Echinococcus multilocularis
[1] = tested on: E. multilocularis metacestode vesicles; assay: Metacestode vesicle viability assay (ATP, CellTiter-Glo); conditions: for viability at 10 µM: Echinococcus multilocularis, 288 h
Description: Viability was assessed after 12 days using the same metacestode vesicles as for the PGI release assay. Triton X-100 was added to each well to a final concentration of 0.1 %. Subsequently the metacestode vesicles were broken mechanically and 50 μL of the supernatant was mixed with 50 μL of CellTiter-Glo® buffer (Promega, Dübendorf, Switzerland). Measurements were performed on a HIDEX Sense microplate reader.

[2] = tested on: E. multilocularis metacestode vesicles; assay: Phosphoglucose isomerase (PGI) release assay (damage-marker release) on metacestode vesicles; conditions: 10 μM; for PGI d5 (relative PGI release): 5 days; for PGI d12 (relative PGI release): 12 days
[3] = tested on: E. multilocularis GL cells; assay: Germinal layer cell viability assay (CellTiter-Glo); conditions: 80 to 0.31 μM, 5 days
Description: The isolation of GL cells was conducted according to ([Kaethner et al., 2023]). Briefly, conditioned DMEM (cDMEM) was prepared prior to isolation. For the preparation of cDMEM, 1 × 10^6 RH cells and 10 × 10^6 RH cells incubated in DMEM supplemented with 10 % FBS, penicillin (100 U/mL), streptomycin (100 μg/mL) and tetracycline (5 μg/mL) for six or four days, respectively, at 37 °C under a humid, 5 % CO2 atmosphere. The supernatant of each was mixed 1:1 and sterile filtrated, resulting in cDMEM. Metacestode vesicles of at least 6 months of age were washed with PBS, incubated in distilled H2O for 2.5 min and subsequently mechanically disrupted. The resulting pellet was resuspended in 7 vol of pre-warmed 0.05 % Trypsin/0.02 % EDTA and incubated at 37 °C for 30 min. GL cells were extracted from the laminated layer by vigorous shaking followed by filtration through a 30 μm mesh (Sefar AG, Heiden, Switzerland) and separated from calcareous corpuscles by short centrifugation at 50×g for 30 s at RT. The isolated cells were centrifuged for 10 min at 600×g and RT and the pellet was resuspended in cDMEM. The cell suspension was diluted 1:100 in PBS to measure the OD600. An OD600 value of 0.1 of this dilution was defined as one arbitrary unit (AU) per μL of the undiluted cell suspension corresponding to 0.97 ± 0.11 μg of total protein for the GL cells as measured via Pierce™ bicinchoninic acid (BCA) Protein Assay Kit according to the manufacturer's protocol (Fisher Scientific AG, Reinach, Switzerland). 1′000 AU per 5 mL of cDMEM were cultured at 37 °C overnight under a humid nitrogen atmosphere. The next day, 2′000 AU of GL cells were combined and further cultured for 3 h at 37 °C under a humid nitrogen atmosphere before they were used for further experiments.
To assess effects of compounds on the cell viability of isolated E. multilocularis GL cells, the protocol was applied as previously described ([Kaethner et al., 2023]). In short, 15 AU of GL cells were distributed into each well of a black 384-well plate. Compounds dissolved in DMSO (alexidine, carbendazim, ESI-09, MMV1581545 and oxfendazole) were added to final concentrations ranging from 80 to 0.31 μM (1:2 serial dilution) and the cells were cultured for 5 days at 37 °C under a humid, microaerobic atmosphere (85 % N2, 10 % CO2, 5 % O2). DMSO with the respective concentration was used as a solvent control. Viability was measured using the CellTiter-Glo® kit. Luminescence was measured using a HIDEX Sense microplate reader. Measurements were done in quadruplicates and represented as relative viability of the DMSO controls. IC50 values were calculated in R applying the five parameter logistic model for three independent experiments ([Ritler et al., 2020]).

[4] = confirmation screen, triplicates, mean
[5] = overview screen, singlets, relative to 0.1 % Triton X-100, DMSO subtracted
[6] = overview screen, 10 μM, singlets, 12 days, relative to DMSO control, read-out: Viability d12 (relative viability)
[7] = overview screen, 10 μM, singlets, 12 days, relative to DMSO control
[8] = confirmation screen, 10 μM, triplicates, mean, 12 days

SMILES | PGI d5 (relative PGI release) [2, 5] [%] | PGI d12 (relative PGI release) [2, 5] [%] | Viability d12 (relative viability) [1, 7] [%] | further results
COC(=O)Nc1nc2ccccc2[nH]1 [carbendazim] | 6.336 | 74.6935 | – | viability at 10 µM ([1]; read-out: Viability d12 (relative viability), confirmation screen, 10 μM, triplicates, mean, 12 days): 36.4%; viability at 10 µM ([1]; read-out: Viability d12 (relative viability), overview screen, 10 μM, singlets, 12 days, relative to DMSO control): 4.59%; PGI d5 (relative PGI release) [2, 4]: 5.10%; PGI d12 (relative PGI release) [2, 4]: 24.66%; effect on GL cell viability (in words) [3]: did not reduce GL cell viability; effect on GL cell viability (in words) ([3]; listed as Carbendazim): not able to decrease GL cell viability
COC(=O)Nc1nc2ccc([S+]([O-])c3ccccc3)cc2[nH]1 (stereo not drawn) [oxfendazole, reference compound] | -1.521 | 31.4286 | – | viability at 10 µM ([1]; confirmation screen, 10 μM, triplicates, mean, 12 days, read-out: Viability d12 (relative viability)): 30.6%; viability at 10 µM [1, 6]: 15.1%; PGI d5 (relative PGI release) [2, 4]: 5.40%; PGI d12 (relative PGI release) [2, 4]: 29.07%; effect on GL cell viability (in words) [3]: not able to decrease GL cell viability; effect on GL cell viability (in words) ([3]; listed as Oxfendazole): did not reduce GL cell viability
[N-]=[N+]=N[C@H]1C[C@H](n2ccc(=O)[nH]c2=O)O[C@@H]1CO [MMV1593520] | 0.5917 | -8.089 | 90.373 | –
O=C(Nc1nnc(-c2ccccc2)o1)c1ccc(F)cc1 [MMV1578578] | -0.5299 | 45.2443 | 33.8998 | –
CS(=O)(=O)c1ccc(Oc2ccc(Cl)cc2)cc1 [MMV1634404] | -0.3308 | -18.6197 | 57.7676 | –
Clc1cc(Cl)c2c(c1)CCc1ccccc1C2n1ccnc1 (stereo not drawn) [MMV1634492] | -1.087 | -25.0724 | 206.655 | –
Fc1ccc(-c2nc(-c3c[nH]c4ccc(Br)cc34)[nH]c2-c2ccc(F)cc2)cc1 [MMV1593537] | 27.6196 | 72.794 | 8.099 | Viability d12 (relative viability) [1, 8]: 69.22%; PGI d5 (relative PGI release) [2, 4]: 0.49%; PGI d12 (relative PGI release) [2, 4]: -0.0663%
COc1ccc2c(c1)cc(CNC(=O)c1cc3ccccc3o1)n2CC(=O)O [MMV1581553] | -2.902 | -25.8097 | 73.1434 | –
COc1ccc2nc(-c3ccccc3)cc(O)c2c1 [MMV011565] | 5.903 | 49.0323 | 19.5448 | Viability d12 (relative viability) [1, 8]: 78.39%; PGI d5 (relative PGI release) [2, 4]: 0.13%; PGI d12 (relative PGI release) [2, 4]: -0.59%
OB1OCc2cc(Cl)ccc21 [MMV1634363] | -0.4278 | -12.2339 | 101.699 | –
CC[C@@]1(O)C(=O)OCc2c1cc1n(c2=O)Cc2cc3c([N+](=O)[O-])cccc3nc2-1 [MMV1580796] | 0.7883 | -0.447 | 120.917 | –
N[C@@H]1CN(c2c(F)cc3c(=O)c(C(=O)O)cn([C@@H]4C[C@@H]4F)c3c2Cl)CC12CC2 [MMV1579850] | -2.37 | -5.627 | 103.25 | –
CCc1cc(Nc2cc(=O)n(CCN3CCN(C(=O)c4ccccc4)CC3)c(=O)[nH]2)ccc1C [MMV1634383] | 0.8629 | 52.997 | 104.622 | –
O=C(CP(=O)(O)O)NCCc1cccc(Oc2ccccc2)c1 [MMV1579787] | -1.804 | -11.6628 | 61.3703 | –
O=C(/C(=C/c1ccc(Cl)cc1Cl)n1ccnc1)c1ccc(Cl)cc1 [MMV1634491] | 24.947 | 25.566 | 14.6955 | Viability d12 (relative viability) [1, 8]: 83.69%; PGI d5 (relative PGI release) [2, 4]: 0.16%; PGI d12 (relative PGI release) [2, 4]: 5.15%
C[C@@H](NC(=O)c1ccccc1-c1ccccc1)B(O)O [MMV1582493] | -2.006 | 35.0936 | 135.265 | –
C[C@H](c1cccc2ccccc12)N(C)Cc1ccccc1 [MMV1782221] | 2 | -21.1471 | 45.2554 | –
CC[C@H](NC(=O)[C@H](C)NC)C(=O)N1C[C@@H](O)C[C@H]1Cc1c(-c2[nH]c3cc(F)ccc3c2C[C@@H]2C[C@H](O)CN2C(=O)[C@H](CC)NC(=O)[C@H](C)NC)[nH]c2cc(F)ccc12 [MMV1557856] | -1.122 | -0.1165 | 106.397 | –
CC(=O)N1CCN(c2ccc(OC[C@@H]3CO[C@@](Cn4ccnc4)(c4ccc(Cl)cc4Cl)O3)cc2)CC1 [MMV637533] | 1.26 | -24.3929 | 224.858 | –
CC(C)Nc1nc2cc(Cl)c(Cl)cc2n1[C@H]1O[C@@H](CO)[C@H](O)[C@@H]1O [MMV1593521] | 1.092 | -0.5297 | 80.7959 | –
CC(Cc1ccccc1)C(=O)Nc1ccc(Cl)cc1C(=O)O (stereo not drawn) [MMV1579781] | -1.72 | 1.6268 | 82.6324 | –
N[C@H]1CCC[C@H]1C(=O)O [MMV1634361] | 0.2611 | 0.2526 | 78.6856 | –
N#Cc1c(F)c(Cl)c(NCc2ccccc2)c(C#N)c1F [MMV1582496, 4-(benzylamino)-5-chloro-2,6-difluorobenzene-1,3-dicarbonitrile] | 23.5135 | 27.7197 | – | viability at 10 µM [1, 6]: 121%; effect on metacestode vesicle viability (in words) ([1]; overview screen, 10 μM, twelve days, cut-off viability ≤30 %): did not reduce the metacestode vesicle viability; activity in the PGI release assay (in words) ([2]; overview screen, twelve days, cut-off PGI release ≥20 %): active in the PGI assay after twelve days
Fc1ccc2c(/C=C/c3nnn[nH]3)c[nH]c2c1 [MMV1578563] | -0.5513 | -11.8723 | 20.2898 | –
CCOC(=O)/C=C/[C@H](C[C@@H]1CCNC1=O)NC(=O)[C@@H](CC(=O)[C@@H](NC(=O)c1cc(C)on1)C(C)C)Cc1ccc(F)cc1 [MMV1580491] | 0.4485 | -17.2617 | 181.789 | –
